The values below come from ChEMBL document CHEMBL1158376, “Azadirachtin, a scientific gold mine” (Bioorg Med Chem, 2009).

The nature of data set [1]: Toxicity in rat. In kind it is organism-based. As to conditions: in vivo.
The subject of data set [2] is Drosophila melanogaster. Kind of data set: Antiproliferative activity against Drosophila melanogaster Kc167 cells after 48 hrs. In kind it is functional.
Data set [3] deals with Drosophila melanogaster. Kind of data set: Induction of nuclear damage in Drosophila melanogaster Kc167 cells after 6 hrs. The class given is functional.

For `C/C=C(\C)C(=O)O[C@H]1C[C@@H](OC(C)=O)[C@@]2(C(=O)OC)CO[C@H]3[C@@H](O)[C@@](C)([C@]45O[C@@]4(C)[C@@H]4C[C@H]5O[C@@H]5OC=C[C@@]54O)[C@H]4[C@]1(CO[C@]4(O)C(=O)OC)[C@@H]32` [AZADIRACHTIN A], the LD50 in data set [1] is above 3540 mg/kg. The inhibition entry in data set [2] and in data set [3] was “Dose-dependent effect” in each case.
